Experiments:
[1] = biological target: T1, TF-VIIa (Homo sapiens, UniProt P08709); experiment: TF-VIIa Assay; type: biochemical; details: for IC50 or % Inhibition TF-VIIa (30 µM): % inhibition at 30 µM (cells with % or %@30, bare 0); for IC50: cells printed as bare numbers (IC50), read-out: IC50 or % Inhibition TF-VIIa (30 µM)
T1 construct: An extrinsic pathway is initiated by the conversion of coagulation factor VII to VIIa by Xa; purchased American Diagnostica, Greenwich CT; Soluble TF was made in house in E. coli
T1 sequence (P08709 213-466 limits assumed): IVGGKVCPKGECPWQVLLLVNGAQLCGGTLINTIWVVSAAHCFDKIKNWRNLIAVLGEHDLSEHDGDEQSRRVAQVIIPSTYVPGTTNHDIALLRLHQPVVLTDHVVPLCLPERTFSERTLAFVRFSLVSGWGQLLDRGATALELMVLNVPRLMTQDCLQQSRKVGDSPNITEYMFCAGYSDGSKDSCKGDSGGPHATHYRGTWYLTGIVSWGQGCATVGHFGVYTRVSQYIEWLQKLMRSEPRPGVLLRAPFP
T1 sequence (P08709 61-212 limits assumed): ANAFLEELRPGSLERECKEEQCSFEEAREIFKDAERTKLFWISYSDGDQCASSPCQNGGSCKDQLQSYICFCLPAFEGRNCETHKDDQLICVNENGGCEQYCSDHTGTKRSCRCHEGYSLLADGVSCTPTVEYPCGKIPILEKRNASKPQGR
T1 sequence (P13726 33-251 partner limits assumed): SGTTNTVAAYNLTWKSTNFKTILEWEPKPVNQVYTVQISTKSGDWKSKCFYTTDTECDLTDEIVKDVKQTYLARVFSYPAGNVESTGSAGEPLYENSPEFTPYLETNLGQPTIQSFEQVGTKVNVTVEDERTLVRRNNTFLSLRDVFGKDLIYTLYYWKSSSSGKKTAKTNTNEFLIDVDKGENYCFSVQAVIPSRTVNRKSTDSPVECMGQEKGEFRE

[2] = biological target: T2, Human factor Xa (Homo sapiens, UniProt P00742); experiment: Xa Assay; type: biochemical; details: % inhibition at 30 µM (cells with % or %@30, bare 0)
T2 construct: leads from XII to XIIa to XIa to IXa and to the conversion of X to Xa; purchased Enzyme Research Laboratories, South Bend IN
T2 sequence (P00742 235-488 limits assumed): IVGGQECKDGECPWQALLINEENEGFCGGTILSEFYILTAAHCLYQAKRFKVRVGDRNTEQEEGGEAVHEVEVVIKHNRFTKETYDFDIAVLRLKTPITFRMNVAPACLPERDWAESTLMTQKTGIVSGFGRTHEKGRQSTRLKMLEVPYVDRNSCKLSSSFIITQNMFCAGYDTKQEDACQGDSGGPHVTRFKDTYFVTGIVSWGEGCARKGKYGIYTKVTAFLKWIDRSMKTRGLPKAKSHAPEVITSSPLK
T2 sequence (P00742 41-179 limits assumed): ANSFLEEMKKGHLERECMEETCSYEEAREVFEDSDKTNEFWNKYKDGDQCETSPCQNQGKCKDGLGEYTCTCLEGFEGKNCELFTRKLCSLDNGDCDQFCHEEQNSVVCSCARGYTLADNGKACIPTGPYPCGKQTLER

[3] = biological target: Trypsin (Sus scrofa, UniProt P00761); experiment: Trypsin Assay; details: for IC50: read-out: IC50 or % Inhibition Trpysin II (30 uM), cells printed as bare numbers (IC50); for IC50 or % Inhibition Trpysin II (30 uM): % inhibition at 30 uM (cells with % or %@30, bare 0)
Chain of Trypsin (P00761 9-231): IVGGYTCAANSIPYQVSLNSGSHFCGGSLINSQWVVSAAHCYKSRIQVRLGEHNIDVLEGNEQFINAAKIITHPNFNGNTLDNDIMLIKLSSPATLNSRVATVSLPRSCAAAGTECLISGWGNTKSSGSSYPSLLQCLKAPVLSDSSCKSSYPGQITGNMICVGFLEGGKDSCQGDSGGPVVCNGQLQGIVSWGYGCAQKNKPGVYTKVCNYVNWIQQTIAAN

| IC50 or % Inhibition TF-VIIa (30 µM) [1] | IC50 or % Inhibition Factor Xa (30 µM) [2] | IC50 [1] [µM] | IC50 [3] [µM] | IC50 or % Inhibition Trpysin II (30 uM) [3] | Compound |
| --- | --- | --- | --- | --- | --- |
| 43% | 0% | – | – | – | N=C(N)c1ccc(CNC(=O)C(Cc2ccccc2)n2c(-c3ccccc3)c(Cl)nc(NC3CCC3)c2=O)cc1 (stereo not shown) [1517-08] |
| 27% | 11% | – | – | – | Cc1cc(Cl)cc(Cl)c1CNc1nc(Cl)c(-c2ccccc2)n(CC(=O)NCc2ccc(C(=N)N)cc2)c1=O [1512-45] |
| 15% | 22% | – | – | – | N=C(N)c1ccc(CNC(=O)Cn2c(-c3ccc(-c4ccccc4)cc3)c(Cl)nc(NCCc3cccnc3)c2=O)cc1 [1471-72] |
| – | – | > 30 | – | – | N=C(N)c1ccc(CNC(=O)Cn2c(-c3ccccc3)c(Cl)nc(N3CCC3)c2=O)cc1 [1522-28] |
| 38% | – | – | – | – | N=C(N)c1ccc(CNC(=O)Cn2c(-c3ccccc3)c(Cl)nc(NCc3cccc4ccccc34)c2=O)cc1 [1507-28] |
| 47% | 4% | – | – | – | N=C(N)c1ccc(CNC(=O)Cn2c(-c3ccccc3)c(Cl)nc(NCc3cc(F)cc(C(F)(F)F)c3)c2=O)cc1 [1512-29] |
| 45% | – | – | – | – | N=C(N)c1ccc(CNC(=O)Cn2c(-c3ccccc3)c(Cl)nc(NCc3ccc(Cl)cc3Cl)c2=O)cc1 [1507-22] |
| 43% | 6% | – | – | – | N=C(N)c1ccc(CNC(=O)Cn2c(-c3ccccc3)c(Cl)nc(NCc3c(F)cccc3C(F)(F)F)c2=O)cc1 [1512-44] |
| 25% | – | – | – | – | N=C(N)c1ccc(CNC(=O)Cn2c(-c3ccccc3)c(Cl)nc(NC(Cc3ccccc3)c3ccccc3)c2=O)cc1 (stereo not shown) [1507-07] |
| 25% | 0% | – | – | 43% | N=C(N)c1ccc(CNC(=O)Cn2c(-c3ccccc3)c(Cl)nc(NCC3CC3)c2=O)cc1 [1517-43] |
| 8%@30 | – | – | – | – | N=C(N)c1ccc(CNC(=O)Cn2c(-c3ccc(-c4ccccc4)cc3)c(Cl)nc(NCCc3cccnc3)c2=O)cc1 [Example 21] |
| 43% | 14% | – | – | – | Cc1cccc(Cl)c1CNc1nc(Cl)c(-c2ccccc2)n(CC(=O)NCc2ccc(C(=N)N)cc2)c1=O [1512-31] |
| 6% | 0% | – | – | – | N=C(N)c1ccc(CNC(=O)Cn2c(-c3ccc(-c4ccccc4)cc3)c(Cl)nc(NCCc3ccccc3)c2=O)cc1 [1471-71] |
| 12% | 16% | – | – | – | N=C(N)c1ccc(CNC(=O)Cn2c(-c3ccc(-c4ccccc4)cc3)c(Cl)nc(NCc3ccncc3)c2=O)cc1 [1471-67] |
| 33% | 0% | – | – | – | CCCCNc1nc(Cl)c(-c2ccccc2)n(CC(=O)NCc2ccc(C(=N)N)cc2)c1=O [1517-35] |
| 31% | 22% | – | – | – | COc1ccc(-c2c(Cl)nc(NCc3ccccc3)c(=O)n2CC(=O)NCc2ccc(C(=N)N)cc2)cc1 [1471-33] |
| 48% | 17% | – | – | – | N=C(N)c1ccc(CNC(=O)Cn2c(-c3ccccc3)c(Cl)nc(NCC(F)(F)F)c2=O)cc1 [1507-41] |
| 0% | 15% | – | – | 25%@30 | N=C(N)c1ccc(CNC(=O)Cn2c(-c3ccccc3)c(Cl)nc(NCc3ccccn3)c2=O)cc1 [1507-24] |
| 40% | 3% | – | – | – | N=C(N)c1ccc(CNC(=O)Cn2c(-c3ccccc3)c(Cl)nc(NCc3cccc(OC(F)(F)F)c3)c2=O)cc1 [1512-40] |
| 32% | – | – | – | – | N=C(N)c1ccc(CNC(=O)Cn2c(-c3ccc(C(F)(F)F)cc3)c(Cl)nc(NC3CCC3)c2=O)cc1 [1515-20] |
| – | 31% | – | – | – | N=C(N)c1ccc(CNC(=O)Cn2c(-c3cccc(Cl)c3)c(Cl)nc(NCc3ccccc3)c2=O)cc1 [1471-25] |
| – | 0% | – | – | – | N=C(N)c1ccc(CNC(=O)Cn2c(-c3ccccc3O)c(Cl)nc(NC3CCC3)c2=O)cc1 [Example 66] |
| – | 29% | – | – | – | N=C(N)c1ccc(CNC(=O)Cn2c(-c3ccccc3)c(Cl)nc(NCc3ccccc3)c2=O)cc1 [1471-9] |
| 7% | 1% | – | – | – | N=C(N)c1ccc(CNC(=O)Cn2c(-c3ccccc3)c(Cl)nc(NC3Cc4ccccc4C3)c2=O)cc1 [1507-08] |

Further lines, the compound ahead of its results:

| Compound | IC50 or % Inhibition TF-VIIa (30 µM) [1] | IC50 or % Inhibition Factor Xa (30 µM) [2] | IC50 [1] [µM] | IC50 [3] [µM] | IC50 or % Inhibition Trpysin II (30 uM) [3] |
| --- | --- | --- | --- | --- | --- |
| N=C(N)c1ccc(CNC(=O)Cn2c(-c3ccc(Cl)cc3)c(Cl)nc(NCCN3CCOCC3)c2=O)cc1 [1471-20] | 42% | 34% | – | – | – |
| COc1ccc(-c2c(Cl)nc(NCCc3ccncc3)c(=O)n2CC(=O)NCc2ccc(C(=N)N)cc2)cc1 [1471-37] | 39% | 7% | – | – | – |
| COc1ccc(-c2c(Cl)nc(NCCN3CCOCC3)c(=O)n2CC(=O)NCc2ccc(C(=N)N)cc2)cc1 [1471-36] | 11% | 6% | – | – | – |
| N=C(N)c1ccc(CNC(=O)C(Cc2ccccc2)n2c(-c3ccccc3)c(Cl)nc(NCCc3cccc(Cl)c3)c2=O)cc1 (stereo not shown) [1517-20] | 22% | 0% | – | – | – |
| Nc1ccc(CNC(=O)Cn2c(Cc3ccccc3)c(Cl)nc(NCCc3ccccc3)c2=O)cn1 [Example 9] | – | – | > 30 | > 30 | – |
| Nc1ccc(CNC(=O)Cn2c(CCc3ccccc3)c(Cl)nc(NCCc3ccccc3)c2=O)cn1 [Example 10, 3-(2-Phenylethylamino)-5-chloro-6-phenethyl-1-(2-amino-5-methylcarboxamidomethylpyridinyl)pyrazinone] | – | – | > 30 | > 30 | – |
| N=C(N)c1ccc(CNC(=O)Cn2c(-c3ccc(Cl)cc3)c(Cl)nc(NCc3ccncc3)c2=O)cc1 [1471-19] | 33% | 26% | – | – | – |
| COc1ccc(-c2c(Cl)nc(NCc3ccncc3)c(=O)n2CC(=O)NCc2ccc(C(=N)N)cc2)cc1 [1471-35] | 37% | 22% | – | – | – |
| N=C(N)c1ccc(CNC(=O)C(Cc2ccccc2)n2c(-c3ccccc3)c(Cl)nc(NCCc3ccccc3)c2=O)cc1 (stereo not shown) [1517-14] | 30% | 0% | – | – | – |
| COc1ccc(-c2c(Cl)nc(NCCc3cccnc3)c(=O)n2CC(=O)NCc2ccc(C(=N)N)cc2)cc1 [1471-40] | 40% | 11% | – | – | – |
| N=C(N)c1ccc(CNC(=O)Cn2c(-c3ccc(-c4ccccc4)cc3)c(Cl)nc(NCCc3cccc(Cl)c3)c2=O)cc1 [1471-70] | 10% | 12% | – | – | – |
| Nc1cccc(-c2c(Cl)nc(NC3CCC3)c(=O)n2CC(=O)NCc2ccccc2)c1 [compound 99] | 6%@30 | 8%@30 | – | – | 7%@30 |
| Nc1cccc(-c2c(Cl)nc(NC3CCC3)c(=O)n2CC(=O)NCCc2ccccc2)c1 [compound 89] | 5%@30 | 5%@30 | – | – | 9%@30 |
| CC(C)Nc1nc(Cl)c(-c2cccc([N+](=O)[O-])c2)n(CC(=O)NCc2ccc(C(N)=NO)cc2)c1=O [Example 61] | 1% | 0% | – | – | 10% |
| N=C(N)c1ccc(CNC(=O)Cn2c(-c3ccc(-c4ccccc4)cc3)c(Cl)nc(NCCc3ccc(Cl)cc3)c2=O)cc1 [Example 22] | 0%@30 | – | – | – | – |
| N=C(N)c1ccc(CNC(=O)Cn2c(-c3ccc4c(c3)OCO4)c(Cl)nc(NCCN3CCOCC3)c2=O)cc1 [1471-44] | 34% | 13% | – | – | – |
| Cc1c(Cl)nc(NCCc2cccnc2)c(=O)n1CC(=O)NCc1ccc(C(=N)N)cc1 [1471-8] | – | 27% | – | – | – |
| CC(=O)Nc1cccc(-c2c(Cl)nc(NC(C)C)c(=O)n2CC(=O)NCCc2ccc(C(=N)N)cc2)c1 [Example 68] | 32% | 6% | – | – | – |
| CCc1c(Cl)nc(NCCc2cccc(Cl)c2)c(=O)n1CC(=O)NCc1ccc(C(=N)N)cc1 [1471-62] | 4% | 0% | – | – | – |
| N=C(N)c1ccc(CNC(=O)Cn2c(-c3ccc4c(c3)OCO4)c(Cl)nc(NCCc3ccc(Cl)cc3)c2=O)cc1 [1471-42] | – | 15% | – | – | – |
| Cc1c(Cl)nc(NCCc2ccc(Cl)cc2)c(=O)n1CC(=O)NCc1ccc(C(=N)N)cc1 [1471-2] | – | 10% | – | – | – |
| N=C(N)NCC#CCNC(=O)Cn1c(-c2ccccc2)cnc(NCCc2ccccc2)c1=O [Example 36] | 5% | 0% | – | – | 30% |
